According to patent US9598381B2, “SMYD2 inhibitors” (AbbVie Inc., priority 2014, dated 2017):

The molecules below were run against SMYD2 (Homo sapiens (Human), UniProt Q9NRG4) (assay: SMYD2 TR-FRET inhibition assay (p53 peptide + SAM, SAH detection)). Conditions: SMYD2 enzyme, p53 peptide and SAM substrates, overnight at room temperature; Tb chelate mAb/OG-SAH probe detection; read-out: TRFRET IC50.
Format: biochemical
Description: 5 microliters of a 2×SMYD2 enzyme solution (20 nM, […] in assay buffer) were added to each well. To the control wells was also added 5 microliters of assay buffer. […] The wells were incubated at room temperature for 30 minutes.
Into the wells of the counter screen plate was added 5 microliters 2×SAH (300 nM, S-adenosyl homocysteine (SAH)), except the control wells.
Into all wells was added 5 microliters of 2×SAM. The plates were covered and incubated overnight at room temperature. […] Analysis of the wells was by the Laser Lentha Low Volume Envision Protocol (emission wavelength of 520 nm; laser excitation wavelength of 337 nm).

Chain of SMYD2 (Q9NRG4 whole entry): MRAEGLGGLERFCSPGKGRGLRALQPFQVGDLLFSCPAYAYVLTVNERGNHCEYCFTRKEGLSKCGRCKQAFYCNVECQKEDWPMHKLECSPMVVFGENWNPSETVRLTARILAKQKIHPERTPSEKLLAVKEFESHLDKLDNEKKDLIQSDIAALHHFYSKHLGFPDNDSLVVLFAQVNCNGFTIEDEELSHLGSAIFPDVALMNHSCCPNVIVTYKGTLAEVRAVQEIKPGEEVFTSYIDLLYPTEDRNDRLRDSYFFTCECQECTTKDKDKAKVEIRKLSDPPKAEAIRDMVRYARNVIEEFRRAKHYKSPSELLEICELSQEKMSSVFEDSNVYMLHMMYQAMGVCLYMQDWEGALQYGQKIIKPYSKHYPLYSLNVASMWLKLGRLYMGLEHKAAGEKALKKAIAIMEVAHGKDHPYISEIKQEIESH

| SMILES | IC50 [µM] |
| --- | --- |
| O=C(CCNCCc1ccc(Cl)c(Cl)c1)N(CCNCCN1CCCC1)C1CCCCC1 [Example 6, N-cyclohexyl-3-((3,4-dichlorophenethyl)amino)-N-(2-((2-(pyrrolidin-1-yl)ethyl)amino)ethyl)propanamide] | 12.1 |
| O=C(CCNCCc1ccccc1)N(CCN1CC[C@H]1COc1cccnc1)C1CCCCC1 [Example 9, (S)-N-cyclohexyl-3-(phenethylamino)-N-(2-(2-((pyridin-3-yloxy)methyl)azetidin-1-yl)ethyl)propanamide] | > 50 |
| O=C1COc2c(CCNCCN(C(=O)CCNCCc3ccc(Cl)c(Cl)c3)C3CCC3)ccc(O)c2N1 [Example 15, N-cyclobutyl-3-((3,4-dichlorophenethyl)amino)-N-(2-((2-(5-hydroxy-3-oxo-3,4-dihydro-2H-benzo[b][1,4]oxazin-8-yl)ethyl)amino)-ethyl)-propanamide] | 3.79 |
| O=C(CCNCCc1ccc(Cl)c(Cl)c1)N(CCN1CCN(c2cccc3c2CCN3)CC1)C1CCCCC1 [Example 12, N-cyclohexyl-3-((3,4-dichlorophenethyl)amino)-N-(2-(4-(indolin-4-yl)piperazin-1-yl)ethyl)propanamide] | 9.83 |
| O=C1COc2c(CCNCCN(C(=O)CCNCCc3ccccc3)C3CCCCC3)ccc(O)c2N1 [Example 11, N-cyclohexyl-N-(2-((2-(5-hydroxy-3-oxo-3,4-dihydro-2H-benzo[b][1,4]oxazin-8-yl)ethyl)amino)ethyl)-3-(phenethylamino)-propanamide] | > 50 |
| O=C(CCNCCc1ccc(Cl)c(Cl)c1)N(CCNCCCN1CCCCC1)C1CCCCC1 [Example 5, N-cyclohexyl-3-((3,4-dichlorophenethyl)amino)-N-(2-((3-(piperidin-1-yl)propyl)amino)ethyl)propanamide] | 11.2 |
| O=C1COc2c(CCNCCN(C(=O)CCNCCc3ccccc3)C3CCCC3)ccc(O)c2N1 [Example 3, N-cyclopentyl-N-(2-((2-(5-hydroxy-3-oxo-3,4-dihydro-2H-benzo[b][1,4]oxazin-8-yl)ethyl)amino)ethyl)-3-(phenethylamino)-propanamide] | 3.74 |
| O=C1COc2c(cccc2C(O)CNCCN(C(=O)CCNCCc2ccc(Cl)c(Cl)c2)C2CCCCC2)N1 (racemic) [Example 1, N-cyclohexyl-3-((3,4-dichlorophenethyl)amino)-N-(2-((2-hydroxy-2-(3-oxo-3,4-dihydro-2H-benzo[b][1,4]oxazin-8-yl)ethyl)amino)ethyl)-propanamide] | 0.065 |
| O=C1COc2c(cccc2[C@@H](O)CNCCN(C(=O)CCNCCc2ccc(Cl)c(Cl)c2)C2CCCCC2)N1 [Example 1b, (R)-N-cyclohexyl-3-((3,4-dichlorophenethyl)amino)-N-(2-((2-hydroxy-2-(3-oxo-3,4-dihydro-2H-benzo[b][1,4]oxazin-8-yl)ethyl)amino)-ethyl)-propanamide] | 0.138 |
| O=C1COc2c(CCNCCN(C(=O)CCNCCc3ccc(Cl)c(Cl)c3)C3CCCC3)ccc(O)c2N1 [Example 4, N-cyclopentyl-3-((3,4-dichlorophenethyl)amino)-N-(2-((2-(5-hydroxy-3-oxo-3,4-dihydro-2H-benzo[b][1,4]oxazin-8-yl)ethyl)amino)-ethyl)-propanamide] | 10 |
| O=C(CCNCCc1ccc(Cl)c(Cl)c1)N(CCNCCCN1CCCC1)C1CCCCC1 [Example 13, N-cyclohexyl-3-((3,4-dichlorophenethyl)amino)-N-(2-((3-(pyrrolidin-1-yl)propyl)amino)ethyl)propanamide] | 7.42 |
| O=C1COc2c(CCNCCN(C(=O)CCNCCc3ccccc3)C3CCC3)ccc(O)c2N1 [Example 14, N-cyclobutyl-N-(2-((2-(5-hydroxy-3-oxo-3,4-dihydro-2H-benzo[b][1,4]oxazin-8-yl)ethyl)amino)ethyl)-3-(phenethylamino)-propanamide] | > 50 |
| COCCC(=O)N(CCNCCc1ccc(O)c2c1OCC(=O)N2)C1CCCCC1 [Example 10, N-cyclohexyl-N-(2-((2-(5-hydroxy-3-oxo-3,4-dihydro-2H-benzo[b][1,4]oxazin-8-yl)ethyl)amino)ethyl)-3-methoxypropanamide] | > 50 |
| CC1CNc2c(CC(C)(C)C)c(NCCN(C(=O)CCNCCc3ccc(Cl)c(Cl)c3)C3CCCCC3)nn2C1 (stereo not drawn) [Example 8, N-cyclohexyl-3-((3,4-dichlorophenethyl)amino)-N-(2-((6-methyl-3-neopentyl-4,5,6,7-tetrahydropyrazolo[1,5-a]pyrimidin-2-yl)-amino)ethyl)-propanamide] | 32.8 |
| O=C1COc2c(cccc2[C@H](O)CNCCN(C(=O)CCNCCc2ccc(Cl)c(Cl)c2)C2CCCCC2)N1 [Example 1a, (S)-N-cyclohexyl-3-((3,4-dichlorophenethyl)amino)-N-(2-((2-hydroxy-2-(3-oxo-3,4-dihydro-2H-benzo[b][1,4]oxazin-8-yl)ethyl)amino)-ethyl)-propanamide] | 0.023 |
| CC(NCCc1ccc(Cl)c(Cl)c1)C(=O)N(CCNCc1ccc(C#N)cc1)C1CCCCC1 (stereo not drawn) [Example 7, N-(2-((4-cyanobenzyl)amino)ethyl)-N-cyclohexyl-((3,4-dichlorophenethyl)amino)propanamide] | 16 |
| Cc1cn2ccccc2c1CCNCCN(C(=O)CCNCCc1cccc(Cl)c1Cl)C1CCCCC1 [Example 16, N-cyclohexyl-3-((2,3-dichlorophenethyl)amino)-N-(2-((2-(2-methylindolizin-1-yl)ethyl)amino)ethyl)propanamide] | 3.44 |
| O=C1COc2c(CCNCCN(C(=O)CCNCc3ccc(Cl)c(Cl)c3)C3CCCCC3)ccc(O)c2N1 [Example 2] | 2.03 |
